Test results from publication PMC4682813, “The Aminosteroid Derivative RM-133 Shows In Vitro and In Vivo Antitumor Activity in Human Ovarian and Pancreatic Cancers” (PLoS ONE, 2015).
Several values for one entry are separate records, joined by “and”; a condition that tells them apart may be missing. Identical values can stand only once. Like-named read-outs stand apart in the source and are kept apart here.

Tests used:
[1] = mouse, in vivo
Description: Ten ♀ Balb/c mice weighing approximately 23 g were separated in 3 groups. […] Mice in groups 1 and 2 received a total of 8 injections over 4 days and were sacrificed on day 8. Mice behavior was monitored during the whole duration of the experiment, and macroscopic observation of organs was performed upon necropsy.

[2] = system: PANC-1 tumors xenografted in nu/nu nude mice; test: PANC-1 xenografts in nude mice; assay type: in vivo; details: aqueous 0.4% methylcellulose:EtOH (92:8), 240 mg/kg s.c. twice a day every other day
Description: (§1) All in vivo experiments were approved by our Institutional Animal Care and Use Committee (Comités de protection des animaux de l’Université Laval) and carried out according to the guidelines of the Canadian Council on Animal Care. For xenografts, homozygous ♀ nu/nu nude mice (24–42 days old) were purchased from Charles River Inc. (Saint-Constant, QC, Canada) and housed (four to five) in vinyl micro-isolated ventilated cages, equipped with air lids, which were kept in laminar airflow hoods and maintained under pathogen-limiting conditions. During the acclimatization and study period, the animals were housed under a controlled environment at 22 ± 3°C, with 50 ± 20% relative humidity and light set at 12 h/day (light on at 07:15). Rodent food (Rodent diet #T.2018.15, Harlan Teklad, Madison, WI) and water were provided ad libitum. For nu/nu nude mice, food and water were sterilized prior to dispensing to the animals. Standard Balb/c mice were used for pharmacokinetic studies. Animals were anesthetized with isoflurane and killed by cervical dislocation.
Twenty female nu/nu nude mice (22–24 g) were inoculated with 5×10^6 PANC-1 cells per flank, in 30% matrigel-containing culture medium (0.1 mL). Ten days after inoculation, tumor-bearing mice were randomized in 2 groups of 10 mice each. […] Mice in the second (control) group (n = 18 tumors) received the vehicle only. As with previous xenografts, the tumor area was measured and mouse body weight monitored.

[3] = system: OVCAR-3 tumors xenografted in nu/nu nude mice; test: OVCAR-3 xenografts using the two selected vehicles; assay type: in vivo
Description: as §1
Fourty ♀ nu/nu nude mice (22–24 g) were inoculated with 5×10^6 OVCAR-3 cells per flank, in 30% matrigel-containing culture medium (0.1 mL). After 23 days, tumor-bearing mice were randomized in 4 groups of 8 to 9 mice each. […] Two control mouse groups, each representing 12 tumors, received only the vehicles. As mentioned above, the tumor area was measured twice weekly and body weight monitored.

[4] = system: OVCAR-3 tumors xenografted in nu/nu nude mice; test: OVCAR-3 xenografts in nude mice, propylene glycol-based vehicle (first part); assay type: in vivo; details: 60 mg/kg s.c. daily, propylene glycol:EtOH (92:8)
Description: as §1
Twenty-two ♀ nu/nu nude mice (22–24 g) were inoculated s.c. with 5×10^6 OVCAR-3 cells (in 0.1 mL of growth medium containing 30% Matrigel (BD Biosciences, Bedford, MA)) into both flanks in each mouse via a 2.5-cm long 22-gauge needle. After 11 days, tumor-bearing mice were randomly assigned to two groups of 11 mice each according to tumor size, i.e. a control group (n = 12 tumors) and a treated group (n = 15 tumors). RM-133 was administered s.c. daily at 60 mg/kg in 0.1 mL of propylene glycol:EtOH (92:8). Animals in the control group received 0.1 mL of vehicle alone. Tumor size was measured twice weekly using a caliper. Two perpendicular diameters (L and W) were measured, and the tumor area (in mm^2) was calculated using the formula (L/2) x (W/2) x π. Animals were weighed at various intervals during the experiment.

[5] = RM-133 plasma and tumor concentration in nude mice after the xenograft experiment (second part), LC-MS/MS; assay type: in vivo, nu/nu nude mice; details: for concentration at 12 h: 12 h after single s.c. 60 mg/kg (0.1 mL)
Description: At the end of the xenograft experiment, and in order to obtain preliminary pharmacological data, mice in treated groups were separated into 4 subgroups of 2–3 mice each, injected s.c. with RM-133 (60 mg/kg) and sacrificed after 3, 7, 12, or 24 h. In parallel, mice in the control group were also separated into 4 subgroups, treated with RM-133 (60 mg/kg) as for treated mice, and sacrificed at the same intervals. Blood was collected from mice by cardiac puncture, and the plasma concentration of RM-133 determined by liquid chromatography–tandem mass spectrometry (LC-MS/MS) as previously reported. Tumors of the mice in the treated group were collected at necropsy, pooled, homogenized according to a known procedure and the quantity of RM-133 was determined by LC-MS/MS.

CYP2D6 = system: CYP2D6; parameters: method as in PMID 25300820; details: low to moderate risk of drug-drug interactions; cited from earlier work
[6] = Solubility of RM-133 in injection vehicles; assay type: physicochemical; details: vehicle #5 sunflower oil:tetrahydrofuran (92:8)
Description: Eleven different vehicles were investigated by s.c. injection. These vehicles were formulated as follows: vehicle #1 [propylene glycol:EtOH (92:8)]; vehicle #2 [aqueous 0.4% methylcellulose:EtOH (92:8)]; vehicle #3 [castor oil:EtOH:benzyl alcohol:benzyl benzoate (65:10:10:15)]; vehicle #4 [sunflower oil:EtOH (92:8)]; vehicle #5 [sunflower oil:tetrahydrofuran (92:8)]; vehicle #6 [aqueous 25% β-cyclodextrin:EtOH (92:8)]; vehicle #7 [sesame oil:EtOH:benzyl benzoate:benzyl alcohol:Tween 80 (89.8:7.8:1:1:0.5)]; vehicle #8 [soya oil:EtOH (92:8)]; vehicle #9 [RPMI medium:EtOH (92:8)]; vehicle #10 [saline:dimethyl sulfoxide (DMSO):Tween 80 (89.5:10:0.5)]; and vehicle #11 [saline:benzyl alcohol:carboxymethylcellulose:Tween 80 (98.2:0.9:0.5:0.4)]. The eight vehicles producing the best RM-133 solubility (#1–8) were injected s.c. (0.1 mL) without the test compound (RM-133) for tolerance and behavioral evaluation studies, by observing mice at 0.25, 1, 3, 7, 23, 26, 28, 30, and 96 h post-injection. Finally, RM-133 was injected s.c. once at 120 mg/kg/0.1 mL of the best […] tolerated vehicles (#1,2,4–7) into ♀ Balb/c mice (4 per group), and mice were next monitored with blood collection by cardiac puncture after 3 and 12 h. The plasma concentration of RM-133 was then determined by LC-MS/MS as above.

[7] = sunflower oil:EtOH (92:8), 240 mg/kg s.c. every other day

For `C#C[C@]1(O)CC[C@H]2[C@@H]3CC[C@H]4C[C@H](O)[C@@H](N5CCN(C(=O)[C@@H]6CCCN6C(=O)c6ccc7ccccc7n6)CC5)C[C@]4(C)[C@H]3CC[C@@]21C` [RM-133], the “mice with slightly enlarged kidneys at necropsy” value ([1]; female, Balb/c, 24 h) was 75%, the “adverse effect on mice” value ([1]; 120 mg/kg) was “no adverse effect” and the “adverse effect on mice” value ([1]; 240 mg/kg) was “no adverse effect”. For the same molecule, the “macroscopic observation of organs at necropsy” value ([1]; sc) was “organs did not show any detectable abnormality”, the “apparent toxicity during the experimental period or at necropsy” value [2] was “no apparent toxicity” and the body weight [2] was “not affected”. The “reduction of PANC-1 tumor size progression” value ([2]; day 22) was 75%, the “reduction of PANC-1 tumor progression” value ([2]; end of treatment (40 days)) was 63% and the “day at which tumor growth became significantly different from control” value ([3]; aqueous 0.4% methylcellulose:EtOH (92:8), 240 mg/kg s.c. twice a day every other day) was 15 days. For the same molecule, the “tumor size relative to its initial value” ([3]; aqueous 0.4% methylcellulose:EtOH (92:8), 240 mg/kg s.c. twice a day every other day, end of treatment (35 days)) was 78%, the “OVCAR-3 tumor growth inhibition” value ([3]; aqueous 0.4% methylcellulose:EtOH (92:8), 240 mg/kg/0.2 mL s.c. twice a day every other day, after 28 days) was 100% and the “abnormal behavior or death” value ([3]; aqueous 0.4% methylcellulose:EtOH (92:8), 35-day treatment period) was “neither abnormal behavior nor death”. For the same molecule, the “reduction of OVCAR-3 xenograft growth” value ([3]; methylcellulose-based vehicle, s.c. (abstract)) was 122%, the “body weight, treated vs control” value [3, 7] was “No significant difference” and the “day at which the effect on tumor growth became significant” value [3, 7] was 28 days. The “toxicity symptoms during the study or at necropsy” value [3, 7] was “no toxicity symptom”, the “OVCAR-3 tumor growth inhibition” value ([3]; sunflower oil:EtOH (92:8), 240 mg/kg/0.2 mL s.c. once every other day, end of treatment (40 days)) was 100% and the “tumor growth after treatment was stopped” value ([3]; sunflower oil:EtOH (92:8), treatment stopped at day 40, no significant difference seven days after termination) was “tumor growth resumed”. The “effect on body weight” value ([4]; 21-day treatment) was “no apparent effect on body weight”, the “day from which treated tumors were significantly smaller than control” value [4] was 15 days and the “difference in tumor size between treated and control groups (tumor growth inhibition)” value ([4]; end of treatment (21 days)) was 60%. For the same molecule, the accumulation in blood ([5]; 21 days-xenograft experiment, 60 mg/kg daily s.c.) was “does not accumulate in blood”, the “concentration inside the tumor” value ([5]; OVCAR-3 tumors of treated mice collected at necropsy, pooled) was 1.2 μM and 773 ng/g and the concentration at 12 h ([5]; nu/nu nude, mouse, plasma, sc, 60 mg/kg, group A: previously treated daily for 21 days) was 178 ng/mL. The concentration at 12 h ([5]; nu/nu nude, mouse, plasma, sc, 60 mg/kg, group B: not previously exposed to the drug) was 91 ng/mL, the concentration at 24 h ([5]; nu/nu nude, mouse, plasma, sc, 60 mg/kg, single s.c. 60 mg/kg in 0.1 mL propylene glycol:EtOH (92:8), 24 h, nude mice) was 81 ng/mL and the “maximum average plasma concentration” value ([5]; single s.c. 60 mg/kg in 0.1 mL propylene glycol:EtOH (92:8), 3 h, nude mice) was 460 ng/mL. For the same molecule, the “inhibition of CYP2D6” value (CYP2D6) was “weak inhibition” and the solubility in vehicle [6] was “poorly soluble”.
